# How the values were obtained:
# [1] = Circulating platelet number in treated mice; assay type: in vivo, mouse; details: 100 mg/Kg/day i.p. for three days, FVB/tac mice
# Procedure: To ascertain whether exogenous (−) carvone in mice impacted platelet reactivity and thrombosis in vivo, FVB/tac mice were administered (−) carvone at a dose of 100 mg/Kg/day for three days by i.p. injection. Platelets were then isolated from mice and thrombin-stimulated ex vivo. Thrombin-induced platelet degranulation ex vivo was inhibited in platelets from (−) carvone-treated mice (FIG. 7C). […] This effect is consistent with adequate absorption and distribution of (−) carvone to attenuate platelet activation and thrombosis in vivo.
# healthy platelets [2] = assay: Platelet calcium transients (Fura-2 fluorescence); assay type: cell-based, human; details: 300 μM, n=5
# Source text: (§1) FIG. 5. A conserved olfactory receptor signal transduction pathway in healthy platelets. A. Proposed platelet OR2L13 signal transduction. Levo-carvone (L-Carvone) binds to OR2L13 on platelets to generate cAMP through adenylyl cyclase activation, and cAMP changes the cytosolic concentration of calcium (Ca 2+) directly and chloride conductance (C1^−) while inhibiting platelet reactivity through known, well-described mechanisms involving protein kinase (PKA). […] C. […] Data are mean±SEM (n=4, MQAE fluorescence). *P=0.0134 (−) carvone vs control by student's t-test. D. Carvone stimulation (300 μM) of healthy platelets promotes local brief calcium transients 20-80% above baseline is sustained compared with thrombin which attenuates over time (n=5 human platelets, Fura-2 fluorescence). MQAE=-[ethoxycarbonylmethyl]-6-methoxy-quinoliniumbromide. Arrowhead=drug addition.
# (§2) ORs and downstream anoctamin proteins are generally expressed in afferent olfactory neurons (23). ORs are GPCRs positively linked to AC to increase cAMP (24), triggering […] as a downstream calcium-sensitive chloride channel (25). If this signal transduction pathway is conserved in platelets, OR2L13 activation should generate cAMP in platelets coincident with changes in platelet Cl^−- and Ca^2+ flux (schematic, FIG. 5A). […]
# FVB/tac mice [3] = assay: Tail bleeding time (time to hemostasis after tail tip amputation); assay type: in vivo, mouse; details: 100 mg/Kg/day i.p. for three days
# Procedure: (§3) FIG. 7. Biomechanical platelet activation is inhibited by OR2L13 agonists. A. In vitro exposure of healthy platelets to steady laminar flow (S-flow) or disturbed flow (D-flow) for 60 mins after 30 minute pre-treatment with vehicle or (−) Carvone (300 μM). Platelet activation quantified by surface p-selectin expression as mean fluorescence intensity (MFI)±SEM, n=3 in each group by 2-way ANOVA. B. Calcein green-loaded healthy human blood flowing through a collagen-I coated microfluidics chamber at 40 dyn/cm^2 and imaged by confocal microscopy for adherent thrombus (green puncta) at three minutes. Data are represented as mean thrombus area of random fields±SEM, n=6-7 in each group following 30 minutes of vehicle (0.25% DMSO) or (−) carvone treatment (300 μM). Differences between groups was assessed by the student's t-test, * P<0.0001 vs. vehicle. C. WT Fvb/tac mice were given 100 mg/Kg/day (−) carvone IP for 3 days. Platelets were isolated and stimulated in the presence of thrombin. […] D. Time to hemostasis in mice treated with (−) carvone following surgical amputation of tail tip in seconds±SEM, n=6-9 in each group, *P=0.0046 vs. vehicle by Mann Whitney U.
# (§4) To ascertain whether exogenous (−) carvone in mice impacted platelet reactivity and thrombosis in vivo, FVB/tac mice were administered (−) carvone at a dose of 100 mg/Kg/day for three days by i.p. injection. […]
# human platelets = assay: cAMP generation in human platelets; assay type: cell-based; details: 300 μM, 5 minutes, n=7
# Source text: as §1, §2
# healthy human blood = assay: Thrombus formation in collagen-I coated microfluidics chamber at high shear; assay type: cell-based; details: 300 μM, 30 minutes, 40 dyn/cm^2, three minutes
# Procedure: (§5) FIG. 7. Biomechanical platelet activation is inhibited by OR2L13 agonists. A. In vitro exposure of healthy platelets to steady laminar flow (S-flow) or disturbed flow (D-flow) for 60 mins after 30 minute pre-treatment with vehicle or (−) Carvone (300 μM). Platelet activation quantified by surface p-selectin expression as mean fluorescence intensity (MFI)±SEM, n=3 in each group by 2-way ANOVA. B. Calcein green-loaded healthy human blood flowing through a collagen-I coated microfluidics chamber at 40 dyn/cm^2 and imaged by confocal microscopy for adherent thrombus (green puncta) at three minutes. […] Differences between groups was assessed by the student's t-test, * P<0.0001 vs. vehicle. […]
# (§6) Healthy human blood loaded with the fluorophore calcein green at room temperature (10 μM, pH 7.4 for 20 minutes), and incubated with odorant ligands for 30 minutes. […] D-flow shear cannot be accurately determined, though the same rotational speed was used with S-flow and D-flow always run alongside no flow (static) conditions for internal consistency. Following exposure to S-flow or D-flow, platelets were imaged by confocal microscopy, surface marker proteins were determined quantitatively by flow cytometry, and platelet proteins were assessed by Western blotting.
# (§7) We next evaluated biomechanical platelet activation by S-flow and D-flow. […]
# healthy platelets [4] = assay: Flow cone and plate exposure to S-flow or D-flow, surface p-selectin by FACS; assay type: cell-based, human; details: 300 μM, 30 minute pre-treatment, 60 mins flow
# Procedure: as §5, §6, §7
# MMP2 [5] = assay: Platelet lysate MMP2 activity by zymography in AAA model; details: isolated platelets from treated wild-type mice, week 4 following AAA
# FVB/tac mice [6] = assay: Murine AAA model (topical elastase, BAPN, anti-TGFβ), aortic diameter by ultrasound
# Procedure: To augment aneurysm growth and induce ILT as described (26), anti—TGFβ blocking antibody (250 μg/mouse) was injected i.p. three times weekly starting the day of surgery. Each mouse (20-30 g in weight) is given 1 mL subcutaneous physiologic saline before surgical incision to account for insensible volume losses with gut externalization. Surgical procedures were conducted on a surgical heating pad at 37 ° C. Mice were anesthetized with isoflurane anesthesia (3% by nosecone) using oxygen as the carrier. Buprenorphine (0.05 mg/Kg) is given 30 minutes prior to skin incision. The area of incision is cleaned with 70% ethanol and betadine three times, and then infiltrated gently with local anesthesia (bupivacaine 5 mg/Kg SQ immediately prior to incision). A midline abdominal incision is made through the skin. The rectus sheath was divided at the Linea Alba. The intestines are exteriorized with a Qtip to the left of mouse onto gauze soaked with saline above and below to prevent drying. Whatman paper 6 mm×9 mm slices were placed on top of aorta below the bifurcation of the renal arteries. […] Hyperalgesia was assessed immediately after the procedure, and then twice daily for 48 hrs, and maintenance dose buprenorphine (0.05 mg/Kg) was given 8 hrs post-surgery, and then maintained at this dose for 48 hrs post-surgery. […]
# MMP2 [7] = assay: Aortic lysate MMP activity by zymography in AAA model; assay type: in vivo, mouse; details: daily 100 mg/Kg i.p., aortic lysate at week 4 following AAA
# Source text: We previously reported that platelet matrix metalloproteinase (MMP) activity is increased in myocardial infarction (7, 27). Given that patients with AAA show less aortic growth and rupture when taking aspirin and growth and rupture are linked to MMP activity (10), we hypothesized that circulating platelets in patients with AAA may synthesize and secrete MMPs. Platelet MMP9 activity was enhanced and the MMP9 Tissue Inhibitor of MMP9 (TIMP1) was reduced in AAA compared to healthy conditions (FIG. 9A). Platelet MMP9 content was unchanged in healthy compared with AAA platelets. Aortic tissue as well as luminal thrombus from patients with infrarenal AAA compared to non-aneurysmal cadaveric aorta had increased expression and activity of MMP9.
# [8] = system: platelets from healthy humans; assay: Light transmission aggregometry, ADP-induced platelet aggregation; assay type: cell-based, human; details: 30 minutes preincubation, ADP 0.1 μM
# Procedure: FIG. 6. […] A. Platelets were isolated from healthy humans and preincubated with (−) carvone or (+) carvone (300 μM) for 30 minutes. Platelets were stimulated with ADP (0.1 μM) and light transmission aggregometry assessed platelet activation. Representative tracings for each agonist are shown. B. Carvone (300 μM) or forskolin (10 μM) incubation individually or together for 30 minutes followed by platelet stimulation with ADP (0.1 μM). Light transmission aggregometry assessed platelet activation. Representative aggregometry tracings are shown. V=vehicle, C=(−)carvone, F=forskolin. Differences between groups by one-way ANOVA followed by Bonferroni correction *P<0.0001, **P=0.0003, ***P<0.0001 vs. vehicle (n=3). C. […] D. Platelets isolated from healthy humans and preincubated with (−) carvone (0-500 μM) for 30 minutes then stimulated with ADP (0.1 μM). Light transmission aggregometry assessed platelet activation. Representative tracings for each agonist are shown. E. Summary data for each concentration of (−) carvone as mean±SEM by ANOVA in the presence of ADP stimulation (0.1 μM). The downward red arrow is ADP in the presence of vehicle to which all data points were compared. *P<0.05 vs. vehicle, n=3 in each group by ANOVA, followed by Bonferroni correction. The broken blue line indicates the log IC50 concentration of (−) carvone. […]
# [9] = system: platelets from FVB/tac mice; assay: Ex vivo thrombin-stimulated platelet activation after in vivo dosing; parameters: species or system mouse; details: 100 mg/Kg/day i.p. for three days
# Procedure: as §3, §4
# healthy platelets [10] = assay: Platelet chloride efflux (MQAE fluorescence); assay type: cell-based, human; details: 300 μM, n=4
# Source text: as §1, §2
# [11] = system: clinical population with AAA; details: large clinical population (ref 10); cited from earlier work
# patients with small AAA = details: randomized clinical trial (ref 14); cited from earlier work
smiles,measurement,setting,value
"C=C(C)[C@@H]1CC=C(C)C(=O)C1 (single isomer, unassigned) [(−) carvone]",circulating platelet number,[1],without affecting the circulating platelet number
same,local brief calcium transients above baseline,healthy platelets [2],20-80%
"C=C(C)C1CC=C(C)C(=O)C1 (single isomer, unassigned; (-)) [(−) carvone]",tail bleeding times,FVB/tac mice [3],prolonged
same,cAMP generation in platelets,human platelets,generates cAMP
same,thrombosis in whole blood (thrombus area),healthy human blood,attenuated
same,S-flow / D-flow induced platelet activation (surface p-selectin),healthy platelets [4],attenuated only D-flow induced platelet activation
same,platelet MMP2 activity compared to control mice,MMP2 [5],decreased
same,AAA growth (aortic diameter by ultrasound),"FVB/tac mice [6]; 100 mg/Kg/day i.p. starting at day 7, fvb/tac mice",attenuated AAA growth
same,MMP2 activity in the aorta,MMP2 [7],decreased MMP2 activity in the aorta
same,ADP-induced platelet aggregation,[8]; 0-500 μM,blunted ADP-induced platelet aggregation dose-dependently
same,"anti-platelet effect, (−) versus (+) enantiomer",[8]; 300 μM,more potent anti-platelet effect
same,thrombin-induced platelet degranulation ex vivo,[9],inhibited
same,chloride efflux,healthy platelets [10],promotes chloride efflux
"CC(=O)Oc1ccccc1C(=O)O [aspirin, reference compound]",AAA growth in patients,[11],limits AAA growth
same,AAA growth (aortic diameter by ultrasound),"FVB/tac mice [6]; 30 mg/L in drinking water starting at day 7, fvb/tac mice",attenuated AAA growth similarly to aspirin
CCCSc1nc(N[C@@H]2C[C@H]2c2ccc(F)c(F)c2)c2nnn([C@@H]3C[C@H](OCCO)[C@@H](O)[C@H]3O)c2n1 [ticagrelor],AAA growth in patients,patients with small AAA,did not alter AAA growth

# Source: patent US20240108591A1, “OR2L13 AGONISTS TO TREAT CVD WITH DY[…] ACTIVATION” (The Cleveland Clinic Foundation, priority 2022, published 2024)
